According to patent US20180265423A1, “Pesticide Dispersion in Concentrated Aqueous Fertilizer Solution” (priority 2014, published 2018):

Key:
Type in all cases: physicochemical
[1] = Stability of 50% clothianidin in 50% URAN 32 fertilizer (Example 6)
Experimental: 0.5 g Witcolate D-510 surfactant was added into 100 g URAN 32 fertilizer solution (50 wt % URAN 32 in water). […] Then 100 g clothianidin was added to the resulting solution and mixed well by hand-shaking. This sample was stable and had about 10% top clear with a smooth bottom suspension after 2 weeks at 40° C.
(§1) In other experiments, 0.3% of a pH adjusting agent (40 wt % Citric acid), was included in the SC sample (homogenized sample) and no noticeable effect was observed on stability. Viscosity measurements were made with a Brookfield viscometer at various speeds (rpm) at room temperature with a #64 spindle. This sample was very viscous but it was highly shear-thinning.

[2] = Suspension of clothianidin in 10-34-0 aqueous fertilizer, effect of concentration on stability (Example 3); conditions: review of table 4
Experimental: Various amounts of clothianidin were added to 10-34-0 fertilizer. Samples were shaken by hand until homogeneous.

[3] = Storage stability of 40% clothianidin SC in 10-34-0 with wetting agent Witcolate D-510 (Example 5); conditions: 10-34-0 with Witcolate D-510
Experimental: The test samples were prepared by adding 60 grams of 10-34-0 fertilizer (from Plant Food) to a bottle. Then various amounts of Witcolate D-510 (2-ethylhexyl sulfate) were added to the 10-34-0 fertilizer and mixed well. Finally, 40 grams of clothianidin (technical grade) was added to the mixture and mixed well by shaking by hand.

[4] = Brookfield viscosity of 50% clothianidin in 50% URAN 32; conditions: #64 spindle
Text: as §1

CN/C(=N\[N+](=O)[O-])NCc1cnc(Cl)s1 [clothianidin]
stability ([1]; 100 g clothianidin, 100 g URAN 32 fertilizer solution, 0.5 g Witcolate D-510, hand-shaking): stable | behaviour of the solid in URAN 32 ([1]; URAN 32, all concentrations): sank to the bottom at all concentrations | clothianidin concentration above which a paste resulted ([1]; URAN 32 system): higher than 55 wt % | separation ([1]; same composition, homogenization method): did not show noticeable separation | top clear ([1]; same sample, hand-shaking, after 2 weeks at 40° C.): about 10% | suspension of the powder in 10-34-0 [2]: without crystal formation and without coagulation | clothianidin concentration above which the SC was difficult to prepare [3]: greater than 40 wt % | Viscosity, mPa-s, 24° C. ([4]; 1 RPM): 10200 mPa-s | Viscosity, mPa-s, 24° C. ([4]; 2 RPM): 6900 mPa-s | Viscosity, mPa-s, 24° C. ([4]; 4 RPM): 3900 mPa-s | Viscosity, mPa-s, 24° C. ([4]; 10 RPM): 2300 mPa-s | Viscosity, mPa-s, 24° C. ([4]; 20 RPM): 1500 mPa-s | Viscosity, mPa-s, 24° C. ([4]; 50 RPM): 1300 mPa-s | Viscosity, mPa-s, 24° C. ([4]; 100 RPM): 1200 mPa-s
